For 7 compounds, GI50 and TGI results are on record in PubChem BioAssay (NCI).

Among the test systems are SK-MEL-2 melanoma; KM12 colon; HOP-62 NSCLC; ACHN renal; SNB-19 CNS; NCI-H522 lung; SK-MEL-28 melanoma; HS 578T breast; UO-31 renal; 786-0 renal.
Holding throughout (assay): growth of human tumour cells (NCI), 48 h

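Method: 48-hour compound exposure of cells in 96-well plates, five concentrations, linear interpolation of endpoints. The concentration for 50% growth inhibition is given as GI50. TGI marks complete inhibition of growth.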 Bounds are passed on as bounds.

Consider `CN(C)CC(=O)N1CCC(c2ccc(NC(=O)c3ncc(C#N)[nH]3)c(C3=CCCCC3)c2)CC1`, for which the GI50 in the assay on SK-MEL-2 melanoma is 6.83 µM; with KM12 colon it was 0.354 µM; with HOP-62 NSCLC it was 7.07 µM; in the assay on ACHN renal it was 5.42 µM; in the assay on SNB-19 CNS it was 11.8 µM; in the assay on NCI-H522 lung it was 7.88 µM. Also, the GI50 with SK-MEL-28 melanoma was 2.2 µM; with HS 578T breast, 2.18 µM; in the assay with UO-31 renal, 3.61 µM; in the assay on 786-0 renal, 3.22 µM. Also, the TGI was 20.3 µM in the assay with SK-MEL-2 melanoma; 13.8 µM with KM12 colon; 19.4 µM in the assay on HOP-62 NSCLC; 17.8 µM in the assay on ACHN renal; 25.2 µM in the assay on SNB-19 CNS; 23.1 µM with NCI-H522 lung. Further, the TGI in the assay with SK-MEL-28 melanoma turned out to be 4.68 µM; in the assay on HS 578T breast, 12.4 µM; in the assay with UO-31 renal, 15 µM; in the assay with 786-0 renal, 13.1 µM.

Regarding `C=C1C(O)C2CCC(C)(C)C(=O)C2=C(CC(C)C)C12CC2` (centres undefined), the GI50 with SK-MEL-2 melanoma is > 100 µM; with KM12 colon, 47.1 µM; in the assay on HOP-62 NSCLC, 76.6 µM; in the assay on ACHN renal it was 39.3 µM; in the assay with SNB-19 CNS, 59.5 µM; in the assay on NCI-H522 lung, 36.6 µM. Further, the GI50 in the assay on SK-MEL-28 melanoma was 43.6 µM; in the assay on HS 578T breast, 18.9 µM; in the assay on UO-31 renal, 66.1 µM; with 786-0 renal, > 100 µM. Further, the TGI in the assay with SK-MEL-2 melanoma, in the assay with KM12 colon, in the assay with HOP-62 NSCLC, in the assay on ACHN renal, in the assay with SNB-19 CNS and in the assay on NCI-H522 lung was > 100 µM each time. Further, the TGI is > 100 µM in the assay on SK-MEL-28 melanoma, 92.9 µM in the assay on HS 578T breast, > 100 µM with UO-31 renal and > 100 µM in the assay with 786-0 renal.

Turning to `COc1ccc(-c2cc(-c3cc(Cl)ccc3Cl)nc3[nH]c(-c4cc(F)c(Cl)cc4Cl)cc(=O)c23)cc1`, the GI50 in the assay with SK-MEL-2 melanoma was 64.8 µM; in the assay with KM12 colon it was 21.7 µM; in the assay on HOP-62 NSCLC, 5.52 µM; in the assay with ACHN renal, 19.9 µM; in the assay on SNB-19 CNS, 64.1 µM; in the assay on NCI-H522 lung, 20.4 µM. The GI50 is > 100 µM with SK-MEL-28 melanoma, 8.19 µM in the assay with HS 578T breast, 59.5 µM in the assay with UO-31 renal and 20.4 µM in the assay with 786-0 renal. The TGI in the assay with SK-MEL-2 melanoma is > 100 µM; in the assay with KM12 colon, 67.1 µM; in the assay with HOP-62 NSCLC, 32.2 µM; with ACHN renal, 69 µM; in the assay on SNB-19 CNS, > 100 µM; with NCI-H522 lung, > 100 µM. Besides, the TGI is > 100 µM in the assay with SK-MEL-28 melanoma, 50.4 µM with HS 578T breast, > 100 µM in the assay with UO-31 renal and 52 µM in the assay with 786-0 renal.

For the compound `C=CC(=O)N[C@H]1C=C(C)c2c(-c3cnc4ccccc4c3)c3c(N)ncnc3n2C1`, the GI50 is 13.4 µM in the assay on SK-MEL-2 melanoma; 19.5 µM with KM12 colon; 20.9 µM with HOP-62 NSCLC; 0.249 µM in the assay on ACHN renal; 32.4 µM with SNB-19 CNS; 0.699 µM with NCI-H522 lung. Besides, the GI50 with SK-MEL-28 melanoma is 19.3 µM; in the assay on HS 578T breast, 8.14 µM; in the assay on UO-31 renal, 0.61 µM; in the assay with 786-0 renal it was 5.14 µM. Moreover, the TGI is 35.2 µM in the assay with SK-MEL-2 melanoma; 45.6 µM in the assay on KM12 colon; 66.7 µM with HOP-62 NSCLC; 16.8 µM with ACHN renal; > 100 µM with SNB-19 CNS; 20.4 µM in the assay on NCI-H522 lung. In addition, the TGI in the assay with SK-MEL-28 melanoma worked out at 68.6 µM; in the assay on HS 578T breast it was 46.6 µM; with UO-31 renal it was 11.5 µM; in the assay with 786-0 renal, 36.8 µM.

For `NC(CO)Cc1cnc[nH]1` (centres undefined), the GI50 in the assay with SK-MEL-2 melanoma, with KM12 colon, in the assay with HOP-62 NSCLC, in the assay with ACHN renal, in the assay with SNB-19 CNS and in the assay on SK-MEL-28 melanoma was > 100 µM each time. Also, the GI50 in the assay with HS 578T breast, with UO-31 renal and in the assay on 786-0 renal was > 100 µM in each case. In addition, the TGI in the assay on SK-MEL-2 melanoma, in the assay on KM12 colon, with HOP-62 NSCLC, in the assay with ACHN renal, in the assay on SNB-19 CNS and in the assay on NCI-H522 lung was > 100 µM each time. Besides, the TGI in the assay on SK-MEL-28 melanoma, in the assay with HS 578T breast, with UO-31 renal and with 786-0 renal was > 100 µM in each case.

With `N#Cc1c(NC(=O)c2cccc(C(F)(F)F)c2)sc2c1CCC(=O)C2`, the GI50 was 2.3 µM in the assay with SK-MEL-2 melanoma; 0.477 µM in the assay on KM12 colon; 1.76 µM in the assay with HOP-62 NSCLC; 0.327 µM with ACHN renal; 0.445 µM with SNB-19 CNS; 0.315 µM in the assay on NCI-H522 lung. Moreover, the GI50 was 0.526 µM in the assay with SK-MEL-28 melanoma, 0.542 µM in the assay on HS 578T breast, 0.355 µM with UO-31 renal and 0.716 µM with 786-0 renal. Further, the TGI is 6.35 µM in the assay with SK-MEL-2 melanoma; 1.95 µM in the assay with KM12 colon; > 26.4 µM with HOP-62 NSCLC; 0.985 µM in the assay on ACHN renal; 2.36 µM in the assay with SNB-19 CNS; 1.65 µM with NCI-H522 lung. Moreover, the TGI in the assay with SK-MEL-28 melanoma stood at 1.92 µM; with HS 578T breast it was 3.77 µM; with UO-31 renal it was 1.38 µM; with 786-0 renal it was 5.85 µM.

With `CN=C(N)N/N=C(\c1ccccc1)c1ccc(Br)cc1`, the GI50 with SK-MEL-2 melanoma was 0.359 µM; in the assay on KM12 colon, 0.334 µM; in the assay on HOP-62 NSCLC, 1.15 µM; in the assay with ACHN renal, 0.467 µM; in the assay on SNB-19 CNS it was 0.6 µM; in the assay with NCI-H522 lung it was 0.21 µM. Besides, the GI50 in the assay on SK-MEL-28 melanoma is 0.844 µM; with HS 578T breast, 0.38 µM; in the assay with UO-31 renal, 0.519 µM; in the assay with 786-0 renal, 0.523 µM. In addition, the TGI turned out to be 1.97 µM in the assay on SK-MEL-2 melanoma; 4.4 µM with KM12 colon; 13.3 µM in the assay on HOP-62 NSCLC; 10.1 µM with ACHN renal; 13.9 µM in the assay on SNB-19 CNS; 0.616 µM in the assay with NCI-H522 lung. The TGI in the assay on SK-MEL-28 melanoma was determined as 5.38 µM; in the assay on HS 578T breast, 5.37 µM; in the assay with UO-31 renal, 6.28 µM; in the assay with 786-0 renal, 4.91 µM.
